SMILES strings stand for the structures.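 A five-concentration, 48-hour dose response in 96-well plates underlies each endpoint, interpolated linearly between surrounding concentrations. Here, GI50 denotes the concentration required for 50% inhibition of growth. TGI marks complete inhibition of growth.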 A value given as a limit tells only on which side of the number the result lay.

The record followed here is PubChem BioAssay (NCI).

Among the test systems are NCI-H23 lung; SK-OV-3 ovarian; EKVX NSCLC; MDA-MB-231 breast; SF-295 CNS; MCF7 breast; PC-3 prostate; MALME-3M melanoma; RPMI-8226 leukemia; CAKI-1 renal.
Assay in all cases: NCI-60 cell line screen, 48 h

With `Cc1nc(-c2ccccc2)c(Cc2ccccc2O)c(=O)[nH]1`, the TGI in the assay with NCI-H23 lung, in the assay on SK-OV-3 ovarian, with EKVX NSCLC, in the assay on MDA-MB-231 breast, with SF-295 CNS and in the assay with MCF7 breast was > 100 µM each time. In addition, the TGI in the assay on PC-3 prostate, with MALME-3M melanoma, in the assay on RPMI-8226 leukemia and in the assay with CAKI-1 renal was > 100 µM throughout.

In the case of `CC(C)c1c(C(=O)Nc2ccccc2)c(-c2ccccc2)c(-c2ccc(F)cc2)n1CC[C@@H]1CC=CC(=O)O1`, the GI50 was 2.03 µM in the assay on NCI-H23 lung; 3.39 µM in the assay with SK-OV-3 ovarian; 1.86 µM with EKVX NSCLC; 2.08 µM with MDA-MB-231 breast; 3.28 µM in the assay on SF-295 CNS; 1.78 µM with MCF7 breast. Moreover, the GI50 in the assay with PC-3 prostate was 1.31 µM; with MALME-3M melanoma it was 1.76 µM; in the assay on RPMI-8226 leukemia it was 0.285 µM; with CAKI-1 renal, 1.6 µM. Moreover, the TGI with NCI-H23 lung was determined as 4.04 µM; in the assay with SK-OV-3 ovarian, 11.9 µM; in the assay on EKVX NSCLC, 3.68 µM; in the assay on MDA-MB-231 breast, 4.51 µM; in the assay with SF-295 CNS, 13.6 µM; with MCF7 breast, 4.01 µM. Besides, the TGI in the assay with PC-3 prostate is 3.86 µM; with MALME-3M melanoma it was 3.41 µM; with RPMI-8226 leukemia, 1.17 µM; in the assay on CAKI-1 renal it was 3.45 µM.

With `CC(=O)N1N=C(c2ccc(Nc3nc(Nc4ccc(Cl)cc4)nc(Nc4ccc(Cl)cc4)n3)cc2)CC1c1ccc([N+](=O)[O-])cc1` (stereo not given), the GI50 was 11.1 µM in the assay on NCI-H23 lung; 4.3 µM in the assay on SK-OV-3 ovarian; 4.22 µM in the assay on EKVX NSCLC; 10.2 µM in the assay with MDA-MB-231 breast; 1.87 µM in the assay on SF-295 CNS; 1.71 µM in the assay with MCF7 breast. Moreover, the GI50 in the assay on PC-3 prostate is 2.92 µM; in the assay with MALME-3M melanoma, 14.7 µM; in the assay with RPMI-8226 leukemia it was 3.61 µM; with CAKI-1 renal, 6.1 µM. The TGI in the assay on NCI-H23 lung is > 100 µM; in the assay on SK-OV-3 ovarian, 34.2 µM; in the assay with EKVX NSCLC it was > 40.1 µM; with MDA-MB-231 breast, > 92 µM; in the assay on SF-295 CNS it was 13.6 µM; in the assay on MCF7 breast, 10.4 µM. The TGI in the assay on PC-3 prostate was > 69.4 µM; with MALME-3M melanoma, 71.7 µM; in the assay with RPMI-8226 leukemia, 42.4 µM; in the assay with CAKI-1 renal, 32.5 µM.

In the case of `CCC[CH2][Sn]([CH2]CCC)([O]C(=O)c1cc(F)ccc1F)[O][Sn]([CH2]CCC)([CH2]CCC)[O]C(=O)c1cc(F)ccc1F`, the GI50 in the assay with NCI-H23 lung was 0.0702 µM; in the assay with SK-OV-3 ovarian it was 1.03 µM; with EKVX NSCLC, 0.69 µM; with MDA-MB-231 breast, 0.436 µM; in the assay on SF-295 CNS, 0.606 µM; in the assay with MCF7 breast, 0.0822 µM. The GI50 in the assay on PC-3 prostate is 0.759 µM; with MALME-3M melanoma, 0.125 µM; in the assay with RPMI-8226 leukemia it was 0.0916 µM; in the assay on CAKI-1 renal it was 0.129 µM. The TGI in the assay on NCI-H23 lung worked out at 0.311 µM; with SK-OV-3 ovarian, 2.34 µM; in the assay on EKVX NSCLC, 2.11 µM; in the assay with MDA-MB-231 breast, 1.63 µM; with SF-295 CNS, 1.85 µM; in the assay with MCF7 breast, 0.776 µM. Also, the TGI in the assay with PC-3 prostate was 2.01 µM; in the assay on MALME-3M melanoma, 0.339 µM; in the assay on RPMI-8226 leukemia, > 100 µM; with CAKI-1 renal, 0.621 µM.

With `O=C1c2cccnc2C(=O)C2C3C=CC(C3)C12` (stereo not given), the TGI in the assay with NCI-H23 lung was 58 µM; in the assay on SK-OV-3 ovarian, 43.9 µM; in the assay with EKVX NSCLC, 28.8 µM; in the assay on MDA-MB-231 breast it was 9.97 µM; with SF-295 CNS it was 26.6 µM; in the assay with MCF7 breast, 15.4 µM. For the same compound, the TGI with PC-3 prostate was determined as 21.8 µM; in the assay with MALME-3M melanoma, 29.5 µM; with RPMI-8226 leukemia it was 8.97 µM; with CAKI-1 renal it was 31.9 µM.

With `O=c1c2c3c(sc2n2c(-c4cc(-c5ccccc5)no4)nnc2n1Cc1ccccc1)CCCC3`, the GI50 with NCI-H23 lung is 36.6 µM; in the assay with SK-OV-3 ovarian, 38.4 µM; with EKVX NSCLC, 8.63 µM; in the assay on MDA-MB-231 breast it was 4.94 µM; in the assay on SF-295 CNS, 6.53 µM; in the assay on MCF7 breast it was 16.3 µM. In addition, the GI50 with PC-3 prostate was 9.19 µM; in the assay on MALME-3M melanoma, 32.1 µM; in the assay with RPMI-8226 leukemia it was 4.23 µM; in the assay on CAKI-1 renal, 10.2 µM. In addition, the TGI with NCI-H23 lung is > 100 µM; in the assay on SK-OV-3 ovarian, > 100 µM; with EKVX NSCLC it was > 67.6 µM; with MDA-MB-231 breast, 55.2 µM; with SF-295 CNS, 31.7 µM; in the assay on MCF7 breast, > 76.3 µM. For the same compound, the TGI with PC-3 prostate is > 100 µM; with MALME-3M melanoma, 97.3 µM; with RPMI-8226 leukemia, > 48.8 µM; in the assay with CAKI-1 renal, 61.5 µM.
